Source: ChEMBL document CHEMBL3611975, “New carbocyclic N(6)-substituted adenine and pyrimidine nucleoside analogues with a bicyclo[2.2.1]heptane fragment as sugar moiety; synthesis, antiviral, anticancer activity and X-ray crystallography” (Bioorg Med Chem, 2015)

Columns and labels:
U-251 = assay: Cytotoxicity against human U251 cells assessed as growth at 10^-5 M relative to control
UACC-62 = assay: Cytotoxicity against human UACC62 cells assessed as growth at 10^-5 M relative to control
SK-OV-3 = assay: Cytotoxicity against human SKOV3 cells assessed as growth at 10^-5 M relative to control
A498 = assay: Cytotoxicity against human A498 cells assessed as growth at 10^-5 M relative to control
KM12 = assay: Cytotoxicity against human KM12 cells assessed as growth at 10^-5 M relative to control
LOX IMVI = assay: Cytotoxicity against human LOXIMVI cells assessed as growth at 10^-5 M relative to control
Malme-3M = assay: Cytotoxicity against human MALME-3M cells assessed as growth at 10^-5 M relative to control
HT-29 = assay: Cytotoxicity against human HT-29 cells assessed as growth at 10^-5 M relative to control
HOP-92 = assay: Cytotoxicity against human HOP92 cells assessed as growth at 10^-5 M relative to control
SK-MEL-5 = assay: Cytotoxicity against human SK-MEL-5 cells assessed as growth at 10^-5 M relative to control
MDA-MB-435 = assay: Cytotoxicity against human MDA-MB-435 cells assessed as growth at 10^-5 M relative to control
SF-268 = assay: Cytotoxicity against human SF268 cells assessed as growth at 10^-5 M relative to control
NCI-H322M = assay: Cytotoxicity against human NCI-H322M cells assessed as growth at 10^-5 M relative to control
OVCAR-5 = assay: Cytotoxicity against human OVCAR5 cells assessed as growth at 10^-5 M relative to control
COLO 205 = assay: Cytotoxicity against human COLO205 cells assessed as growth at 10^-5 M relative to control
RXF 393 = assay: Cytotoxicity against human RXF393 cells assessed as growth at 10^-5 M relative to control
Influenza A virus = assay: Antiviral activity against Influenza A virus (A/Puerto Rico/8/1934(H1N1)) infected in MDCK cells assessed as decrease in virus titer after 48 hrs by MTT assay; assay type: functional, organism-based
SF-539 = assay: Cytotoxicity against human SF539 cells assessed as growth at 10^-5 M relative to control
NCI/ADR-RES = assay: Cytotoxicity against human NCI/ADR-RES cells assessed as growth at 10^-5 M relative to control
SR = assay: Cytotoxicity against human SR cells assessed as growth at 10^-5 M relative to control
[1] = Selectivity index, ratio of CTD50 for MDCK cells to EC50 for Influenza A virus (A/Puerto Rico/8/1934(H1N1)); assay type: toxicity, cell-based; conditions: dog
SW-620 = assay: Cytotoxicity against human SW620 cells assessed as growth at 10^-5 M relative to control
DU-145 = assay: Cytotoxicity against human DU145 cells assessed as growth at 10^-5 M relative to control
SK-MEL-2 = assay: Cytotoxicity against human SK-MEL-2 cells assessed as growth at 10^-5 M relative to control
MOLT-4 = assay: Cytotoxicity against human MOLT4 cells assessed as growth at 10^-5 M relative to control
OVCAR-4 = assay: Cytotoxicity against human OVCAR4 cells assessed as growth at 10^-5 M relative to control
ACHN = assay: Cytotoxicity against human ACHN cells assessed as growth at 10^-5 M relative to control
SK-MEL-28 = assay: Cytotoxicity against human SK-MEL-28 cells assessed as growth at 10^-5 M relative to control
K562 = assay: Cytotoxicity against human K562 cells assessed as growth at 10^-5 M relative to control
NCI-H23 = assay: Cytotoxicity against human NCI-H23 cells assessed as growth at 10^-5 M relative to control
HCT-15 = assay: Cytotoxicity against human HCT15 cells assessed as growth at 10^-5 M relative to control
HCT-116 = assay: Cytotoxicity against human HCT116 cells assessed as growth at 10^-5 M relative to control
[2] = Selectivity index, ratio of CTD50 for African green monkey Vero cells to EC50 for Human coxsackievirus B4 Powers; assay type: toxicity, cell-based
IGROV-1 = assay: Cytotoxicity against human IGROV1 cells assessed as growth at 10^-5 M relative to control
T47D = assay: Cytotoxicity against human T47D cells assessed as growth at 10^-5 M relative to control
A549 = assay: Cytotoxicity against human A549 cells assessed as growth at 10^-5 M relative to control
SNB-19 = assay: Cytotoxicity against human SNB19 cells assessed as growth at 10^-5 M relative to control
[3] = Cytotoxicity against African green monkey Vero cells assessed as cell viability after 72 hrs by MTT assay; assay type: cell-based; conditions: chlorocebus sabaeus, read-out: CTD50
HCC 2998 = assay: Cytotoxicity against human HCC2998 cells assessed as growth at 10^-5 M relative to control
NCI-H460 = assay: Cytotoxicity against human NCI-H460 cells assessed as growth at 10^-5 M relative to control

Structure (SMILES) | growth, % of control at 10 µM (U-251) [%] | growth, % of control at 10 µM (UACC-62) [%] | growth, % of control at 10 µM (SK-OV-3) [%] | growth, % of control at 10 µM (A498) [%] | growth, % of control at 10 µM (KM12) [%] | growth, % of control at 10 µM (LOX IMVI) [%] | growth, % of control at 10 µM (Malme-3M) [%] | growth, % of control at 10 µM (HT-29) [%] | growth, % of control at 10 µM (HOP-92) [%] | growth, % of control at 10 µM (SK-MEL-5) [%] | growth, % of control at 10 µM (MDA-MB-435) [%] | growth, % of control at 10 µM (SF-268) [%] | growth, % of control at 10 µM (NCI-H322M) [%] | growth, % of control at 10 µM (OVCAR-5) [%] | growth, % of control at 10 µM (COLO 205) [%] | growth, % of control at 10 µM (RXF 393) [%] | EC50 (Influenza A virus) [µM] | growth, % of control at 10 µM (SF-539) [%] | growth, % of control at 10 µM (NCI/ADR-RES) [%] | growth, % of control at 10 µM (SR) [%] | also measured
OC[C@H]1[C@@H]2C[C@H](n3cnc4c(NCCc5ccccc5)ncnc43)[C@H]1C[C@@H]2Cl | 103 | 93.1 | 103 | 95.5 | 102 | 92.7 | 102 | 95.3 | 92.4 | 73.9 | 99.7 | 101 | 99.5 | 104 | 99.3 | 87 | 15 | 98.2 | 88.2 | 84.1 | selectivity ratio [1]: 10; growth, % of control at 10 µM (SW-620): 99.7%; growth, % of control at 10 µM (DU-145): 98%; growth, % of control at 10 µM (SK-MEL-2): 97.2%; growth, % of control at 10 µM (MOLT-4): 83.3%; growth, % of control at 10 µM (OVCAR-4): 93.6%; growth, % of control at 10 µM (ACHN): 97.8%; growth, % of control at 10 µM (SK-MEL-28): 107%; growth, % of control at 10 µM (K562): 91.1%; growth, % of control at 10 µM (NCI-H23): 93.2%; growth, % of control at 10 µM (HCT-15): 81.7%; growth, % of control at 10 µM (HCT-116): 101%; selectivity ratio [2]: 3; growth, % of control at 10 µM (IGROV-1): 105%; growth, % of control at 10 µM (T47D): 86.8%; growth, % of control at 10 µM (A549): 92.6%; growth, % of control at 10 µM (SNB-19): 107%; CC50 at 72 h [3]: 14 µM; growth, % of control at 10 µM (HCC 2998): 89.8%; growth, % of control at 10 µM (NCI-H460): 108%
COc1ccc(CCNc2ncnc3c2ncn3[C@H]2C[C@H]3[C@H](CO)[C@@H]2C[C@@H]3Cl)cc1 | 105 | 99.6 | 106 | 99.9 | 97 | 96.7 | 98.2 | 87.9 | 114 | 87 | 114 | 97.7 | 89.2 | 97.7 | 113 | 104 | 16 | 95.1 | 86.5 | 86.7 | selectivity ratio [1]: 22; growth, % of control at 10 µM (SW-620): 108%; growth, % of control at 10 µM (DU-145): 105%; growth, % of control at 10 µM (SK-MEL-2): 101%; growth, % of control at 10 µM (MOLT-4): 103%; growth, % of control at 10 µM (OVCAR-4): 94.3%; growth, % of control at 10 µM (ACHN): 97.7%; growth, % of control at 10 µM (SK-MEL-28): 104%; growth, % of control at 10 µM (K562): 82.8%; growth, % of control at 10 µM (NCI-H23): 102%; growth, % of control at 10 µM (HCT-15): 95.5%; growth, % of control at 10 µM (HCT-116): 100%; selectivity ratio [2]: 1; growth, % of control at 10 µM (IGROV-1): 98.7%; growth, % of control at 10 µM (T47D): 66.1%; growth, % of control at 10 µM (A549): 83.3%; growth, % of control at 10 µM (SNB-19): 107%; CC50 at 72 h [3]: 14 µM; growth, % of control at 10 µM (HCC 2998): 97.2%; growth, % of control at 10 µM (NCI-H460): 106%
CCOc1ncnc2c1ncn2[C@H]1C[C@H]2[C@H](CO)[C@@H]1C[C@@H]2Cl | 102 | 104 | 128 | 88.8 | 101 | 90.9 | 96 | 96.5 | 124 | 100 | 106 | 98 | 89.9 | 92.5 | 119 | 106 | 225 | 102 | 90.8 | 97.5 | selectivity ratio [1]: > 5; growth, % of control at 10 µM (SW-620): 109%; growth, % of control at 10 µM (DU-145): 105%; growth, % of control at 10 µM (SK-MEL-2): 108%; growth, % of control at 10 µM (MOLT-4): 111%; growth, % of control at 10 µM (OVCAR-4): 108%; growth, % of control at 10 µM (ACHN): 99%; growth, % of control at 10 µM (SK-MEL-28): 100%; growth, % of control at 10 µM (K562): 101%; growth, % of control at 10 µM (NCI-H23): 87.9%; growth, % of control at 10 µM (HCT-15): 95.7%; growth, % of control at 10 µM (HCT-116): 105%; selectivity ratio [2]: 2; growth, % of control at 10 µM (IGROV-1): 95.4%; growth, % of control at 10 µM (T47D): 103%; growth, % of control at 10 µM (A549): 99%; growth, % of control at 10 µM (SNB-19): 115%; CC50 at 72 h [3]: 208 µM; growth, % of control at 10 µM (HCC 2998): 98.9%; growth, % of control at 10 µM (NCI-H460): 108%
